≈ marks a conversion by molar mass, not a printed value.
What was measured:
E. coli [1] = conditions: known MIC for the E. coli strain tested; cited from earlier work
E. coli [2] = experiment: Antimicrobial susceptibility testing using PZT piezoelectric plate sensor (width mode resonance peak); type: cell-based
Description: After the PZT sensor was insulated with MPS and coated with APS, it was immersed in 5 ml of DI water to monitor the stability of width mode frequency peak for more than 30 min. If the peak was symmetric and stable, the sensor could be used for the antimicrobial testing.
E. coli suspension in broth was prepared. The concentration was about 10^9 cells/mi. The following procedure was used to replace the broth with DI water, since the ions in the broth might affect the spectrum of the sensor. The suspension was centrifuged at 3000 rpm/min for 5 min and the supernatant was removed. 5 mL of DI water was then added to the tube and the E. coli was re-suspended in DI water.
For the first a few tests (Tests 1-3), a drop of E. coli suspension (20 μl) was put on the sensor surface. After 10 min, the sensor was washed with 400 ml of DI water in a glass beaker 3 times to remove the unbound bacteria. The sensor was then returned to 5 ml of DI water and its width mode peak was monitored. In Test 4, instead of putting a drop of suspension on the sensor, the sensor was soaked in the E. coli suspension for 10 min. The washing step for Test 4 was the same as mentioned above.
After the sensor with E. coli was monitored for 5-10 min, various amounts of ampicillin were added to the DI water every 5 min to determine whether the antibiotics would have an effect on the frequency peak. For Test 1, 1 mg/ml ampicillin solution was made. Different volumes of the ampicillin solution ([…]) were added to the 5 ml of DI water to make the final concentrations of the ampicillin 1, 2, 4, 8, 16, and 32 μg/ml. In Tests 2-4 20 μl of ampicillin solutions of different concentrations (0.25, 0.25, 0.5, 1, 2, and 4 mg/ml) were added each time to make the final concentration of the ampicillin to 1, 2, 4, 8, 16, and 32 μg/ml.
To characterize the roundness of the peak shape, the raw data was smoothed first (as shown in FIG. 15. The amount of variation of the raw data from the smoothed data was calculated as the standard deviation (SD) of the raw data. The width of the top of the peak could be found when the phase angle was 1 times SD (or 2 times SD) smaller than the maximum phase angle in smoothed data. The more round the peak was, the smaller the width of the top of the peak would be. On the other hand, the more flat the peak was, the larger the width of the top of the top of the peak would be.

[3] = pH of ampicillin solution measured using pH paper; type: physicochemical; conditions: 1 mg/ml

## CC1(C)S[C@@H]2[C@H](NC(=O)[C@H](N)c3ccccc3)C(=O)N2[C@H]1C(=O)O [ampicillin]
E. coli [1]
  minimal inhibitory concentration (MIC): 8 µg/mL (≈ 22.9 µM)
E. coli [2]; Test 1
  change of SD of peak frequency after adding ampicillin, compared to the SD with E. coli: decreased a lot
E. coli [2]; Test 1 (results similar in Tests 2 and 3), E. coli on sensor in DI water, ampicillin 1-32 μg/ml added every 5 min
  ampicillin concentration at which the SD of the peak frequency reached its minimal point: 8 µg/mL
E. coli [2]; Test 4, different sensor, pH adjusted ampicillin, sensor soaked in E. coli suspension
  change of width of the top of the peak after adding ampicillin: decreased
E. coli [2]; Tests 1-3
  change of width of the top of the peak after adding ampicillin: started to decrease
[3]
  pH value of the ampicillin solution: 3
